Kd data for seven compounds are collected here from article PMC7174318, “The novel E. coli cell division protein, YtfB, plays a role in eukaryotic cell adhesion” (Scientific Reports, 2020).

Structures are written as SMILES. Where two headings read alike, the source gives them in different places.

The target of this assay is T1, YtfB (his6-YtfB, C-terminal domain) (Escherichia coli, UniProt P39310).
T1 construct: extracellular C-terminal region, residues 52-212 incl; LysM-like (OapA) domain; His6 tag kept; pETMCSIII-ytfB, expressed in E. coli BL21 AI
T1 sequence (P39310 52-212): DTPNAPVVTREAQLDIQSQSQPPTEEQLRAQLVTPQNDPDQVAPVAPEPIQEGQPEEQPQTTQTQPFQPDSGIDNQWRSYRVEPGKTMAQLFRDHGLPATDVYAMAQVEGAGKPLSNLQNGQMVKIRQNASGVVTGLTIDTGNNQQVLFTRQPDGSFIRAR
The assay is described as follows: surface plasmon resonance, steady state affinity, YtfB immobilised by amine coupling on CM5. In kind it is binding. The settings on record: PBS running buffer. Background: In SPR one partner is held on a chip, and binding of the other changes the refractive index at the surface.

For orientation: Kd means the equilibrium constant for the complex coming apart.

In turn, `CC(=O)N[C@H]1[C@H](O[C@H]2[C@H](O)[C@@H](NC(C)=O)C(O)O[C@@H]2CO)O[C@H](CO)[C@@H](O[C@@H]2O[C@H](CO)[C@@H](O)[C@H](O)[C@H]2NC(C)=O)[C@@H]1O` (stereo partly shown) [4B, GlcNAcβ1-4GlcNAcβ1-4GlcNAc] came in with a dissociation constant (Kd) of 3300 ± 2130 nM.

For `CC(=O)N[C@H]1[C@H](O[C@H]2[C@H](O)[C@@H](NC(C)=O)[C@H](O[C@H]3[C@H](O)[C@@H](NC(C)=O)C(O)O[C@@H]3CO)O[C@@H]2CO)O[C@H](CO)[C@@H](O[C@@H]2O[C@H](CO)[C@@H](O[C@@H]3O[C@H](CO)[C@@H](O[C@@H]4O[C@H](CO)[C@@H](O)[C@H](O)[C@H]4NC(C)=O)[C@H](O)[C@H]3NC(C)=O)[C@H](O)[C@H]2NC(C)=O)[C@@H]1O` (stereo partly shown) [4D, hexaacetylchitohexaose], the Kd was found to be 24.8 ± 5.3 nM.

Turning to `OC[C@H]1O[C@H](O[C@@H]2C(O)O[C@H](CO)[C@@H](O)[C@@H]2O)[C@@H](O)[C@@H](O)[C@@H]1O` (stereo partly drawn) [5C, α1–2mannobiose], the dissociation constant Kd is 43.3 nM.

`OC[C@H]1O[C@H](O[C@H]2[C@H](O)[C@@H](CO)OC(O)[C@H]2O)[C@@H](O)[C@@H](O)[C@@H]1O` (stereo partly drawn) [5D, α1–3mannobiose]: the Kd turned out to be 345 nM.

As to `OC[C@H]1O[C@H](O[C@H]2[C@H](O)[C@H](O)C(O)O[C@@H]2CO)[C@@H](O)[C@@H](O)[C@@H]1O` (stereo partly drawn) [5E, α1–4mannobiose], binding was put at a Kd of 31.2 nM.

Take `OC[C@H]1O[C@H](OC[C@H]2OC(O)[C@@H](O)[C@@H](O)[C@@H]2O)[C@@H](O)[C@@H](O)[C@@H]1O` (stereo partly drawn) [5F, α1–6 mannobiose]: where the note is “read-out: KD”, the equilibrium dissociation constant (Kd) came to 112 nM.

As to `CC(=O)N[C@H]1[C@H](O[C@H]2[C@H](O)[C@@H](NC(C)=O)C(O)O[C@@H]2CO)O[C@H](CO)[C@@H](O[C@@H]2O[C@H](CO)[C@@H](O[C@@H]3O[C@H](CO)[C@@H](O)[C@H](O)[C@H]3NC(C)=O)[C@H](O)[C@H]2NC(C)=O)[C@@H]1O` (stereo partly shown) [tetraose (N’acetylglucosamine)], the Kd worked out at 463 ± 71 nM.
